Laboratory results published in patent publication US4307194A, “Inhibitors, obtained from bacilli, for glycoside hydrolases” (Bayer Aktiengesellschaft, priority 1976, dated 1981).

What was measured:
[1] = molecular target: T1, saccharase from swine small intestine mucosa (Sus scrofa, UniProt P56729); experiment: Saccharase test (saccharase inhibitor units, SIU); type: biochemical; details: solid product
T1 construct: sucrase subunit cut from the sucrase-isomaltase precursor
Description: A saccharase inhibitor unit (SIU) is defined as the amount of inhibitor which inhibits two saccharase units to the extent of 50%. A saccharase unit (SU) is the amount of enzyme which, under the test conditions indicated below, splits 1 μmol of sucrose into glucose and fructose in one minute. The μmols of glucose formed are determined quantitatively with the aid of the glucose oxidase reaction under conditions under which further splitting of sucrose by saccharase no longer takes place. In order to carry out the test, 1-20 μg of inhibitor, or 1-20 μl of the solution to be tested, are added to 0.05 ml of saccharase solution adjusted to a content of 0.12 SU and the mixture is made up to 0.1 ml with 0.1 M sodium maleate buffer of pH 6.0. Suitably, a solubilised saccharase from swine small intestine mucosa according to B. Borgstrom, A. Dahlquist, Acta Chem. Scand. […] The mixture is equilibrated at 35° C. for 10 minutes and 0.1 ml of a 0.05 M sucrose solution in 0.1 M sodium maleate buffer of pH 6.0, prewarmed to 35° C., is then added. The mixture is incubated at 35° C. for 20 minutes and the saccharase reaction is stopped by adding 1 ml of glucose oxidase reagent and the mixture is incubated for a further 30 minutes at 35° C. […] 1 ml of 50% strength H2 SO4 is then added and the mixture is measured at 545 nm against a corresponding blank value. […]

microbial α-glucosidases = details: T. NIWA et al. Agr. Biol. Chem. 34, 966; cited from earlier work

T1 sequence (P56729 with tags, fused parts or gaps): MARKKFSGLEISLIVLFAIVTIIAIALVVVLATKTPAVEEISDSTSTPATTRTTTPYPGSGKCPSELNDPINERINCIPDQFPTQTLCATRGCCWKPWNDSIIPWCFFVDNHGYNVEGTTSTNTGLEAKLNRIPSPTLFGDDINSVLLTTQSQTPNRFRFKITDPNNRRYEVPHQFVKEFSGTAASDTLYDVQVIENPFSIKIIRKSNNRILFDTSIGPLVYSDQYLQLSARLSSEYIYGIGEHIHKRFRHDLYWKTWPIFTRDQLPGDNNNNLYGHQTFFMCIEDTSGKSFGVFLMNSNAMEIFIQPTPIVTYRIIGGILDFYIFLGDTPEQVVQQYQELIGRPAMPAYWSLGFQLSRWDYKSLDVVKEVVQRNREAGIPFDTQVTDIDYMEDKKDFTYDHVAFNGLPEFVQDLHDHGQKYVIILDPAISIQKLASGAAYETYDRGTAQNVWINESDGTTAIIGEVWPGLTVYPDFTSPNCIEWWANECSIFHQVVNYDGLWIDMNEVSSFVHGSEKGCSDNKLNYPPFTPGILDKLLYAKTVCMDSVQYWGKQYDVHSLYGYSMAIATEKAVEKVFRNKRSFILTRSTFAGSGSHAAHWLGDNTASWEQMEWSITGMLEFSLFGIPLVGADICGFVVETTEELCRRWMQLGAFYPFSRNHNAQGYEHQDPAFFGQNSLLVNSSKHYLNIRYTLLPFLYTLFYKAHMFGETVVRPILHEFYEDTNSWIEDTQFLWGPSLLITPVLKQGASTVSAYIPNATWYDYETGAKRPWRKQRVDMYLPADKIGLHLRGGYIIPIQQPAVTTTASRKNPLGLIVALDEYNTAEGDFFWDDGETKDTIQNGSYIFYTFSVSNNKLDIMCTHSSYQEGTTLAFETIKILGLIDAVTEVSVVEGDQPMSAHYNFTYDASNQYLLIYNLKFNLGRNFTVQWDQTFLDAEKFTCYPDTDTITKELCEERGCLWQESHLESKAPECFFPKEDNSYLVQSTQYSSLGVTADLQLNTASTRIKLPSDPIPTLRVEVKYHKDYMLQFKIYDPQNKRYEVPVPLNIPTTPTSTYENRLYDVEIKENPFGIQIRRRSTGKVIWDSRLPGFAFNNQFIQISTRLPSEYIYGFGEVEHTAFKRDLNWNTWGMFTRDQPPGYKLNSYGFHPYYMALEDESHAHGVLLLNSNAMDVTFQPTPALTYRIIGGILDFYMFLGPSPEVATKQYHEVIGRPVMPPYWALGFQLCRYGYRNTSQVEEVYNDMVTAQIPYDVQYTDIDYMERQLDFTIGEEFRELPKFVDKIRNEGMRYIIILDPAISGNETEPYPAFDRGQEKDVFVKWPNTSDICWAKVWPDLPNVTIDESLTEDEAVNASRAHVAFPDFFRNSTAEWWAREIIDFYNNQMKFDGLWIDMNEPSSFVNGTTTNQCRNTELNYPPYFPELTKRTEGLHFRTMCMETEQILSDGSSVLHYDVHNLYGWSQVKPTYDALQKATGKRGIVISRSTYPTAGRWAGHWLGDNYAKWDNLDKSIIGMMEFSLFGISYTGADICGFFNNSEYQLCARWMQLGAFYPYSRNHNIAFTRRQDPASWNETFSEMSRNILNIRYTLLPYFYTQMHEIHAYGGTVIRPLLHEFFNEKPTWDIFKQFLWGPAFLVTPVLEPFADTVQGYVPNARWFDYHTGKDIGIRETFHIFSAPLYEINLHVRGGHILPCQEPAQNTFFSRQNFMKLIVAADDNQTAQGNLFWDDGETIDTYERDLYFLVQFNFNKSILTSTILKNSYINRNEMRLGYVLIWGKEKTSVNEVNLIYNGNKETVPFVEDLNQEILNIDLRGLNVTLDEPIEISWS

| SMILES | specific saccharase-inhibitory activity [1] | inhibition of microbial α-glucosidases (microbial α-glucosidases) |
| --- | --- | --- |
| OC[C@H]1NC[C@H](O)[C@@H](O)[C@@H]1O [Example 34, 1-desoxynojirimycin] | 540,000 SIU/g |  |
| OC[C@H]1NC(O)[C@H](O)[C@@H](O)[C@@H]1O (some centres unmarked) [nojirimycin] |  | inhibits |
